The source of these data is US6955873B1, “Diagnosis and treatment system for reward deficiency syndrome (RDS) and related behaviors” (priority 1999, dated 2005).

Like-named read-outs stand apart in the source and are kept apart here.

One data set concerns animals and humans. Conditions: cited from earlier work.
Data set [1] concerns subjects diagnosed with ADHD. Conditions: study in the early 70's; cited from earlier work.
The subject of a further data set is adult albino rats. Conditions: 10 day administration, 500 ng/kg per day with the drinking water; cited from earlier work.
The conditions of data set [2]: in vivo; cited from earlier work.
Another data set has as its system animals and man. Conditions: used separately, animals and man; cited from earlier work.
Data set [3] concerns mice. The note with it: cited from earlier work.
The test system of data set [4] is mice. The note with it: cited from earlier work. The source holds these as a separate data set.
Data set [5] concerns allergy tested subjects with common cold. The note with it: lozenges.
The test system of a further data set is animals. Conditions: cited from earlier work; for rewarding actions: dopamine receptor agonists.
Another data set deals with humans. The note with it: in vivo; cited from earlier work.
The test system of another data set is alcoholics. Conditions: in vivo; cited from earlier work.
The test system of a further data set is common cold. The note with it: high dose supplementation; cited from earlier work.
Another data set has as its system aminotripepidase. Conditions: cited from earlier work.
The test system of the next data set is rhinovirus. The note with it: reported 1974; cited from earlier work.
For data set [6] the following is noted: in vivo; cited from earlier work. The source holds these as a separate data set.
The subject of data set [7] is synaptosomes in rat brain slices. Conditions: cited from earlier work.
The subject of a further data set is swine. Conditions: in vivo; cited from earlier work.
For a further data set, the system named is cell culture. Conditions: concentrations thousands of times higher than physiological levels; cited from earlier work.
Setting [8] is: mu-opioid receptor knockout mice.
Where [9] appears, read: homozygous mu-opioid receptor knockout mice.
The mark [10] stands for this setting: wild type (and heterozygous) mice.

`CC(C)CC(N)C(=O)O` (racemic) [DL-leucine]: the alcohol intake result with animals and humans was “significantly lowered”. For the molecule `NC(Cc1ccccc1)C(=O)O` (racemic) [DL-phenylalanine], in [1], the anxiety result is “reduced anxiety” and the mood result was “increased the mood”. The alcohol intake entry in the data set on animals and humans is “significantly lowered”. As for `NC(=O)CC[C@H](N)C(=O)O` [1-glutamine], in the data set on adult albino rats, the “content of glutamate, GABA and taurine in the brain” value was “significant increase”. As for `Nc1c2c(nc3ccccc13)CCCC2` [Cognex], the duration of action in [2] is 2 h.

Take `CC(C)C[C@@H](N)C(=O)O` [D-leucine]: the alcohol intake entry with animals and humans is reported as “significantly lowered”. Besides, the analgesia entry in the data set on animals and man is “excellent analgesia”. As to `CN1CC[C@]23c4c5ccc(O)c4O[C@H]2[C@@H](O)C=C[C@H]3[C@H]1C5` [Morphine], the figures for the writhing responses result in the data set on mice [3] (setting [8]) and in the data set on mice [3] (wild-type mice) were “ineffective” and “effective”, respectively. For the same molecule, the “withdrawal responses to mechanical stimuli” value in the data set with mice [4] (setting [9]) is reported as “no significant effect”; in the data set with mice [4] (setting [10]), “dose-dependent reduction”. On to `C=CCN1C[C@H](C)N([C@H](c2ccc(C(=O)N(CC)CC)cc2)c2cccc(OC)c2)C[C@H]1C` [SNC8O], for which the results for the writhing responses result in the data set with mice [3] (setting [8]) and in the data set with mice [3] (wild-type mice) were “ineffective” and “effective”, respectively.

On to `CC(=O)[O-].CC(=O)[O-].[Zn+2]` [Zinc acetate], for which, in [5], the “duration of common cold symptoms” value is “significantly shortened” and the “symptoms associated with allergies” value was “re3lieved”. Turning to `CN1CCc2cccc3c2[C@H]1Cc1ccc(O)c(O)c1-3` [apomorphine], in the data set with animals, the rewarding actions entry was “have rewarding actions”.

On to `CC(C)C[C@H]1C(=O)N2CCC[C@H]2[C@]2(O)O[C@](NC(=O)[C@@H]3C=C4c5cccc6[nH]c(Br)c(c56)C[C@H]4N(C)C3)(C(C)C)C(=O)N12` [bromocriptine], for which the rewarding actions entry with animals is “have rewarding actions”. Besides, in the data set on humans, the short term memory result is “increase short term memory”. Also, the “reducing relapse rates as a function of dopamine D2 receptor genotype” value in the data set on alcoholics is on record as “selective positive effect”. Consider `O=C(CCCN1CCC(O)(c2ccc(Cl)cc2)CC1)c1ccc(F)cc1` [haloperidol], for which, in the data set with animals (animals), the “alcohol and cocaine self-administration” value was “atenuate or block”. For the molecule `O=C(O)CCc1ccccc1` [hydrocinnamic acid], in the data set on animals and humans, the alcohol intake entry is “significantly lowered”. Regarding `O=C1O[C@H]([C@@H](O)CO)C(O)=C1O` [vitamin C], in the data set with common cold, the “decrease of incidence of the common cold” value is reported as “no evidence”. `[Zn+2]` [zinc ions]: the inhibition of aminotripepidase result in the data set with aminotripepidase is “potent inhibitor”. Moreover, the rhinovirus replication result with rhinovirus is given as “inhibit”.

DPDPE: the “withdrawal responses to mechanical stimuli” value is listed as “not” in the data set with mice [4] (setting [9]) and “reduced” with mice [4] (setting [10]). Take Tyr-Arg [Kyotorphin]: in data set [6], the analgesic activity result is “analgesic”. The intracellular calcium result in data set [7] is given as “enhance intracellular calcium”. With Tyr-D-arg, the analgesic activity entry in [6] is recorded as “analgesic”. In [7], the intracellular calcium entry is on record as “enhance intracellular calcium”. For the molecule methionine-enkephalin, the “blood flow in specific brain sites (basal ganglia, frontal cortex, hippocampus)” value in the data set with swine is on record as “enhancement of blood flow”. As to trivalent chromium, in the data set with cell culture, the chromosome breakage entry was “can break chromosomes”.
